Patent US12338256B2, “Aza-tetracyclic oxazepine compounds and uses thereof” (Genentech, Inc., priority 2022, dated 2025)

How the values were obtained:
Assay type in all cases: cell-based
[1] = tested on: PC-9 (KRAS wild type human lung adenocarcinoma cell line); assay: KRAS 3D-Cell Proliferation Assay, PC-9 (Example 503); details: 168 h, PC-9 3D culture, 7 days, CellTiter-Glo 3D, read-out: Prolif PC9 3D ATP IC50
Procedure: Example 503: KRAS 3D-Cell Proliferation Assays. Cellular potencies of compounds are assessed by evaluating inhibition of proliferation in 3D cultures of homozygous mutant KRAS G12D human pancreatic cell lines (AsPC-1 and HPAC) as compared to a KRAS wild type human lung adenocarcinoma cell line (PC-9 and/or H1975). Cells are seeded into 384-well black round-bottom, ultra-low attachment assay plates in 50 uL cell growth medium (RPMI-1640 with 10% fetal bovine serum and 2 mM L-glutamine). After overnight incubation at 37° C. and 5% CO2, compounds solubilized in DMSO are added as dilution series to the wells in a total volume of 150 nL (0.3% DMSO final). The cells are incubated for 7 days at 37° C. and 5% CO2. Cell proliferation is quantitated by addition of 40 uL/well of CellTiter-GloÒ 3D (Promega), and the well contents are mixed 20× at high speed using liquid handling automation workstation (Bravo with 384-well head) and centrifuged at 1500 rpm for 2 minutes to eliminate bubbles. This reagent in combination with mechanical disruption releases the cellular ATP to promote activity in a luciferase-based enzyme/substrate chemiluminescent detection system. After a 30-minute incubation under ambient conditions with shaking and an additional 10 minutes without shaking, the luminescence is read on a plate reader (e.g., EnVision [PerkinElmer]). The results are normalized to percent inhibition based on the following control samples: DMSO (0% inhibition) and 1 μM staurosporine (100% inhibition). The normalized luminescence results are plotted against compound concentration, and the data are fit to a 4-parameter Hill equation to determine the IC50 values.

[2] = tested on: AsPC-1 (homozygous mutant KRAS G12D human pancreatic cell line); assay: KRAS 3D-Cell Proliferation Assay, AsPC-1 (Example 503); details: Homo sapiens, ASPC1, 168 h, AsPC-1 3D culture, 7 days, CellTiter-Glo 3D; read-out: Prolif AsPC-1 3D ATP IC50
Outline: (§1)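 IC50 values derive from 4-parameter Hill fits of normalized luminescence, where DMSO sets 0% and 1 μM staurosporine 100% inhibition. 3D cultures in RPMI-1640 with 10% fetal bovine serum were exposed to compound for 7 days before CellTiter-Glo 3D lysis.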

[3] = tested on: HPAC (homozygous mutant KRAS G12D human pancreatic cell line); assay: KRAS 3D-Cell Proliferation Assay, HPAC (Example 503); details: Homo sapiens, HPAC, 168 h, HPAC 3D culture, 7 days, CellTiter-Glo 3D; read-out: Prolif HPAC 3D ATP IC50
Outline: as §1

[4] = tested on: H1975 (KRAS wild type human lung adenocarcinoma cell line); assay: KRAS 3D-Cell Proliferation Assay, H1975 (Example 503); details: Homo sapiens, NCI-H1975, 168 h, H1975 3D culture, 7 days, CellTiter-Glo 3D; read-out: Prolif H1975 3D ATP IC50
Outline: as §1

SMILES	IC50 [1] [µM]	IC50 [2] [µM]	IC50 [3] [µM]	IC50 [4] [µM]
Cc1cc(N)nc(-c2nc3c4c(nc(OC[C@]56CCN5CC(F)(F)C6)nc4c2F)N2C[C@H]4CC[C@H](N4)[C@H]2[C@H](C)O3)c1C(F)(F)F (single isomer, unassigned) [Compound 45]	≥ 20			
C#Cc1c(F)ccc2cccc(-c3nc4c5c(ncnc5c3F)N3C[C@H]5CC[C@H](N5)[C@H]3[C@H](C)O4)c12 [Compound 56, (5S,5aS,6S,9R)-2-(8-ethynyl-7-fluoronaphthalen-1-yl)-1-fluoro-5-methyl-5a,6,7,8,9,10-hexahydro-5H-4-oxa-3,10a,11,13,14-pentaaza-6,9-methanonaphtho[1,8-ab]heptalene]	≥ 20	5.74		
Cc1cc(N)c(F)c(-c2nc3c4c(nc(OC[C@@]56CCN5CC(F)(F)C6)nc4c2F)N2C[C@H]4CC[C@H](N4)[C@H]2[C@H](C)O3)c1C(F)(F)F [Compound 92, 3-((5S,5aS,6S,9R)-12-(((S)-3,3-Difluoro-1-azabicyclo[3.2.0]heptan-5-yl)methoxy)-1-fluoro-5-methyl-5a,6,7,8,9,10-hexahydro-5H-4-oxa-3,10a,11,13,14-pentaaza-6,9-methanonaphtho[1,8-ab]heptalen-2-yl)-2-fluoro-5-methyl-4-(trifluoromethyl)aniline]	11.2			
C[C@@H]1Oc2nc(-c3nc(N)c(F)cc3C(F)(F)F)c(F)c3nc(OC[C@@]45CCCN4C[C@H](F)C5)nc(c23)N2C[C@H]3CC[C@H](N3)[C@@H]12 [Compound 84, 3-Fluoro-6-((5S,5aS,6S,9R)-1-fluoro-12-(((2R,7aS)-2-fluorotetrahydro-1H-pyrrolizin-7a(5H)-yl)methoxy)-5-methyl-5a,6,7,8,9,10-hexahydro-5H-4-oxa-3,10a,11,13,14-pentaaza-6,9-methanonaphtho[1,8-ab]heptalen-2-yl)-5-(trifluoromethyl)pyridin-2-amine]	≥ 20	1.16		
Oc1cc(-c2nc3c4c(nc(OC[C@@]56CCCN5C[C@H](F)C6)nc4c2F)N2C[C@H]4CC[C@H](N4)[C@H]2CO3)c2c(F)cccc2c1 [Compound 1, 5-Fluoro-4-((5aS,6S,9R)-1-fluoro-12-(((2R,7aS)-2-fluorotetrahydro-1H-pyrrolizin-7a(5H)-yl)methoxy)-5a,6,7,8,9,10-hexahydro-5H-4-oxa-3,10a,11,13,14-pentaaza-6,9-methanonaphtho[1,8-ab]heptalen-2-yl)naphthalen-2-ol]	16.9	0.226		
CN1CCC2COc3nc(-c4cc(O)cc5cccc(F)c45)c(F)c4nc(OC[C@@]56CCCN5C[C@H](F)C6)nc(c34)N2CC1 (single isomer, unassigned) [Compound 49]	2.37	≥ 20		
Cc1cc(N)nc(-c2nc3c4c(nc(OC[C@@]56CCCN5CC5(CC5(F)F)C6)nc4c2F)N2C[C@H]4CC[C@H](N4)[C@H]2CO3)c1C(F)(F)F (stereo partly drawn) [Compound 42, 6-((5aS,6S,9R)-12-(((7a′S)-2,2-difluorodihydro-1′H,3′H-spiro[cyclopropane-1,2′-pyrrolizin]-7a′(5′H)-yl)methoxy)-1-fluoro-5a,6,7,8,9,10-hexahydro-5H-4-oxa-3,10a,11,13,14-pentaaza[6,9]methanonaphtho[1,8-ab]heptalen-2-yl)-4-methyl-5-(trifluoromethyl)pyridin-2-amine]	7.04	0.122		
Cc1ccnc(-c2nc3c4c(nc(OC[C@]56CCN5CC(F)(F)C6)nc4c2F)N2C[C@H]4CC[C@H](N4)[C@H]2[C@H](C)O3)c1C(F)(F)F [Compound 88, (5S,5aS,6S,9R)-12-(((R)-3,3-Difluoro-1-azabicyclo[3.2.0]heptan-5-yl)methoxy)-1-fluoro-5-methyl-2-(4-methyl-3-(trifluoromethyl)pyridin-2-yl)-5a,6,7,8,9,10-hexahydro-5H-4-oxa-3,10a,11,13,14-pentaaza-6,9-methanonaphtho[1,8-ab]heptalene]	≥ 20	≥ 20		
C[C@@H]1Oc2nc(-c3cccc4cccc(Cl)c34)c(F)c3nc(OCC45CCN4CC(F)(F)C5)nc(c23)N2C[C@H]3CC[C@H](N3)[C@@H]12 (single isomer, unassigned) [Compound 21]	7.7		0.698	12.2
